Source: patent publication EP0452935B1, “Chiral 2-(phosphonomethoxy)propyl guanines as antiviral agents” (INSTITUTE OF ORGANIC CHEMISTRY AND BIOCHEMISTRY OF THE …, priority 1990, dated 1991)
Values after ≈ are worked out from the molar mass of the structure shown.

Key:
Format in all cases: cell-based
[1] = tested on: herpes simplex virus Type 2 (HSV-2); experiment: plaque reduction assay, HSV-2 in vero cells; conditions: Human alphaherpesvirus 2, G strain, 48 hour incubation
Method: (§1) The compounds were evaluated for antiviral activity in vitro by the standard plaque reduction assay. Experiments were conducted with vero cells (African Green Monkey Kidney cells) infected with herpes simplex virus Type 1 (HSV-1) [BW^s strain, C. D. Sibrack et al., Infect. Dis., 1982, 146, 673] and herpes simplex virus Type 2 (HSV-2) [G strain, obtained from American Tissue Culture Collection, Rockville, MD] and with MRC-5 cells (human embryonic lung (diploid) cells) infected with human cytomegalovirus (HCMV) [AD169 strain, obtained from American Tissue Culture Collection, Rockville, MD]. Briefly, confluent cell monolayers in 24-well plates were infected with 30-50 plaque-forming units of virus in 100 »l of phosphate-buffered saline. After a 1 hour adsorption period, residual inoculum was replaced with 1 mL of the appropriate dilution of the test compound which had been freshly prepared in Eagle's minimal essential medium (EMEM) containing 10% fetal bovine serum. After a 48 hour incubation period at 37°C in a 5% CO₂ atmosphere, cell monolayers were fixed and stained with Carbol fuchsin and plaques were counted. The antiviral potency of the compound was determined by IC₅₀, the inhibitory concentration necessary to reduce the number of plaques by 50% of those in the virus control cultures.

[2] = tested on: human cytomegalovirus (HCMV); experiment: plaque reduction assay, HCMV in MRC-5 cells; conditions: Human betaherpesvirus 5, MRC5, AD169 strain
Method: as §1

[3] = tested on: human immunodeficiency virus (LAVBRU strain); experiment: anti-HIV XTT assay in infected CEM-SS cells; conditions: for anti-HIV activity (in words): XTT assay (FIGS. 4, 6, 7); for EC50: infected CEM-SS cells, XTT assay, day 7 post-infection, viable cells increased to 50% of uninfected control, NA = Not active at concentrations up to 500 µM, read-out: ED50 (the source's name); for SI: Selectivity Index: Ratio of TD50 to ED50, CEM-SS cells, 10080 min
Method: (§2) Compounds were evaluated for activity against human immunodeficiency virus (LAVBRU strain obtained from Luc Montagnier, Institut Pasteur, Paris, France) in CEM-SS cells (P. L. Nara et al., in AIDS Res. Human. Retroviruses, 1987, 3, 283-302) or in MT-4 cells (S. Harada, et al., in Science, 1985, 229, 563-566) using the XTT assay described by O. S. Weislow et al., in J. Natl. Cancer Instit., 1989, 81, 577-586. CEM-SS cells were obtained from Owen Weislow at the National Cancer Institute, and MT-4 cells were obtained from Doug Richman at the University of California at San Diego. Cells were exposed to HIV and cultured in microtiter plates in the presence of test compounds at concentrations of 0.0013, 0.0064, 0.032, 0.16, 0.8, 4, 20, 100, and 500 »M. On day 7 post-infection, the antiviral effect was measured using the XTT assay in which an optical density (OD) reading is obtained at each drug concentration. The optical density reading is proportional to the number of viable cells. Assays run in infected cells show the antiviral effect of the test compounds, where an increase in the number of viable cells (higher OD reading) reflects the protective, antiviral activity of the compound. Assays run in uninfected cells provide a measure of cellular toxicity. The antiviral effect is also expressed (see Table 2) as the concentration of compound which increases the number of viable cells in infected cultures to 50%, that of the untreated, uninfected control cultures (ED₅₀). The cellular toxicity is expressed as the concentration of compound which reduces the number of viable cells to 50%, that of the untreated control (TD₅₀). The selectivity index (SI) is the ratio of TD₅₀ to ED₅₀. The anti-HIV activity and cellular toxicity of the test compounds are plotted in FIGS. 1-7 as a function of optical density verus increasing log concentrations of the test compounds (XTT assay).

in vitro [4] = conditions: human, cem-ss cells
Method: as §2

in vitro [5] = conditions: human, mt-4 cells
Method: as §2, with “The antiviral effect is also expressed (see Table 2) as the concentration of compound which increases the number of viable cells in infected cultures to 50%, that of the untreated, uninfected control cultures (ED₅₀). The cellular toxicity is expressed as the concentration of compound which reduces the number of viable cells to 50%, that of the untreated control (TD₅₀). The selectivity index (SI) is the ratio of TD₅₀ to ED₅₀. The anti-HIV activity and cellular toxicity of the test compounds are plotted in FIGS. 1-7 as a function of optical density verus increasing log concentrations of the test compounds (XTT assay).” left out

[6] = tested on: herpes simplex virus Type 1 (HSV-1); experiment: plaque reduction assay, HSV-1 in vero cells; conditions: Human alphaherpesvirus 1, BW^s strain, 48 hour incubation
Method: as §1

CEM-SS cells = experiment: in vitro
Method: as §2

[7] = tested on: human immunodeficiency virus (LAVBRU strain); experiment: anti-HIV XTT assay in infected MT-4 cells; conditions: MT4 cells, XTT assay (FIG. 2)
Method: as §2, with “The antiviral effect is also expressed (see Table 2) as the concentration of compound which increases the number of viable cells in infected cultures to 50%, that of the untreated, uninfected control cultures (ED₅₀). The cellular toxicity is expressed as the concentration of compound which reduces the number of viable cells to 50%, that of the untreated control (TD₅₀). The selectivity index (SI) is the ratio of TD₅₀ to ED₅₀. The anti-HIV activity and cellular toxicity of the test compounds are plotted in FIGS. 1-7 as a function of optical density verus increasing log concentrations of the test compounds (XTT assay).” left out

[8] = Human immunodeficiency virus 1, 168 h

IC50 [1]	MNTC (in vitro [4])	MNTC at 168 h (in vitro [5])	IC50 [6]	MCC at 168 h (in vitro [5])	SMILES	IC50 [2]	anti-HIV activity (in words) ([3]; CEM-SS cells)	EC100 ([3]; Human immunodeficiency virus 1, 168 h, CEM-SS cells, XTT assay (FIGS. 3, 5), read-out: concentration giving complete protection from HIV)	EC50 [3, 8]	SI [3]	CC50 (in vitro [4])	cytotoxicity relative to (R)-2'-methyl-PMEG (CEM-SS cells)	CC50 (CEM-SS cells; human, cem-ss cells)	anti-HIV effect (in words) [7]
25 µg/mL (≈ 82.4 µM)	< 100 µM	–	–	–	C[C@@H](Cn1cnc2c(=O)[nH]c(N)nc21)OCP(=O)(O)O [(S)-2'-methyl-PMEG, (S)-9-[2-(phosphonomethoxy)propyl]guanine]	5 µg/mL (≈ 16.5 µM)	active	100 µM	12 µM	25	300 µM	–	–	–
25 µg/mL (≈ 82.4 µM)	< 100 µM	< 100 µM	–	–	C[C@H](Cn1cnc2c(=O)[nH]c(N)nc21)OCP(=O)(O)O [(R)-2'-methyl-PMEG, (R)-9-[2-(phosphonomethoxy)propyl]guanine]	5 µg/mL (≈ 16.5 µM)	active	–	1 µM	–	> 500 µM	–	–	–
31 µg/mL (≈ 97.1 µM)	–	–	8 µg/mL (≈ 25.1 µM)	–	Nc1nc2c(ncn2C[C@@H](CO)OCP(=O)(O)O)c(=O)[nH]1 [(S)-HPMPG, (S)-9-[3-hydroxy-2-(phosphonomethoxy)propyl]guanine]	0.9 µg/mL (≈ 2.82 µM)	clearly inactive	–	–	–	350 µM	–	–	–
32 µg/mL (≈ 100 µM)	–	–	32 µg/mL (≈ 100 µM)	–	Nc1nc2c(ncn2C[C@H](CO)OCP(=O)(O)O)c(=O)[nH]1 [(R)-HPMPG, (R)-9-[3-hydroxy-2-(phosphonomethoxy)propyl]guanine]	0.5 µg/mL (≈ 1.57 µM)	clearly inactive	–	500 µM	>1	> 500 µM	–	–	–
0.31 µg/mL (≈ 1.07 µM)	–	–	0.09 µg/mL (≈ 0.311 µM)	> 100 nM	Nc1nc2c(ncn2CCOCP(=O)(O)O)c(=O)[nH]1 [PMEG, 9-[2-(phosphonomethoxy)ethyl]guanine]	< 0.1 µg/mL	some anti-HIV effect	–	0.2 µM	30	–	approximately 30 fold	15 µM	no anti-HIV effect can be measured
